According to patent publication US20120238447A1 (priority 2009, published 2012):
Read-outs that look alike come from different tables or passages of the source.

Experiments:
[1] = system: Pyricularia oryzae; type: cell-based; details: MTP, 405 nm, 7 days after inoculation, 18° C, efficacy from relative growth in %
[2] = system: Septoria tritici; test: Activity against leaf blotch on wheat caused by Septoria tritici (microtiter plate test); type: cell-based; details: MTP, 405 nm, 7 days after inoculation, 18° C

SMILES	Observed efficacy ([1]; pyraclostrobin alone, 0.004 ppm)	Observed efficacy ([2]; Pyraclostrobin alone, 0.001 ppm)	Observed efficacy ([1]; triazamat alone, 1 ppm)	Observed efficacy ([2]; Triazamat alone, 0.25 ppm)
COC(=O)N(OC)c1ccccc1COc1ccn(-c2ccc(Cl)cc2)n1 [pyraclostrobin]	23	7	–	–
CCOC(=O)CSc1nc(C(C)(C)C)nn1C(=O)N(C)C [triazamat, triazamate]	–	–	4	4
